Key:
oval-leafed pondweed = assay: Test Example 2: herbicidal activity, application during weed generation under submerged conditions (Table 17, symbol C); assay type: in vivo, oval-leafed pondweed (Monochoria vaginalis); settings: application during weed generation, submerged conditions
Procedure, shortened: (§1)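 Herbicide emulsion, diluted with water to the chosen amount, is applied onto 4 cm floodwater over alluvial soil where the weeds were co-sown and raised at 25–30° C. Application timing: 1–2 leaves. Assessment: three weeks afterwards.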

redroot pigweed [1] = assay: Test Example 4: herbicidal effect by soil treatment (Table 19, symbol N); assay type: in vivo, redroot pigweed (Amaranthus retroflexus)
Procedure, shortened: (§2)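 Herbicidal effect was rated 3 weeks after treatment, using the scoring criteria of an earlier test. The compound, formulated as an emulsion and diluted in water to a set herbicide amount, had been sprayed uniformly on soil over freshly sown seeds. Growth took place in a greenhouse at 25° C. to 30° C.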

green foxtail = assay: Test Example 5: herbicidal effect by foliage application, plastic box (Table 20, symbol G); assay type: in vivo, green foxtail (Setaria viridis); settings: foliage application, three weeks after application
Procedure, shortened: (§3)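 Foliar spray test: emulsion formulation diluted in water to a set application rate, sprayed onto 14-day-old plants raised in diluvial soil at 25° C to 30° C under glass. Both herbicidal effect and crop effect rated visually three weeks later.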

redroot pigweed [2] = assay: Test Example 5: herbicidal effect by foliage application, plastic box (Table 20, symbol N); assay type: in vivo, redroot pigweed (Amaranthus retroflexus); settings: foliage application, three weeks after application
Procedure, shortened: as §3

wild oat [3] = assay: Test Example 4: herbicidal effect by soil treatment (Table 19, symbol I); assay type: in vivo, wild oat (Avena fatua)
Procedure, shortened: as §2

late watergrass = assay: Test Example 1: herbicidal activity, application before weed generation under submerged conditions (Table 16, symbol A); assay type: in vivo, late watergrass (Echinochloa oryzicola)
Procedure, shortened: (§4)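 Alluvial soil was flooded to 4 cm depth, weed seeds were sown mixed and 2.5-leaf rice seedlings were transplanted. On sowing day, the compound's emulsion, diluted in water to a set dose, was applied to the water surface. Plants grew at 25–30 °C and were scored 0–5 after three weeks.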

chickweed = assay: Test Example 5: herbicidal effect by foliage application, plastic box (Table 20, symbol P); assay type: in vivo, common chickweed (Stellaria media); settings: foliage application, three weeks after application
Procedure, shortened: as §3

wild oat [4] = assay: Test Example 5: herbicidal effect by foliage application, plastic box (Table 20, symbol I); assay type: in vivo, wild oat (Avena fatua); settings: foliage application, three weeks after application
Procedure, shortened: as §3

southern crabgrass = assay: Test Example 4: herbicidal effect by soil treatment (Table 19, symbol F); assay type: in vivo, southern crabgrass (Digitaria ciliaris)
Procedure, shortened: as §2

false cleavers [5] = assay: Test Example 5: herbicidal effect by foliage application, plastic box (Table 20, symbol Q); assay type: in vivo, false cleavers (Galium spurium); settings: foliage application, three weeks after application
Procedure, shortened: as §3

blackgrass [6] = assay: Test Example 5: herbicidal effect by foliage application, plastic box (Table 20, symbol J); assay type: in vivo, blackgrass (Alopecurus myosuroides); settings: foliage application, three weeks after application
Procedure, shortened: as §3

barnyard grass [7] = assay: Test Example 5: herbicidal effect by foliage application, plastic box (Table 20, symbol H); assay type: in vivo, barnyard grass (Echinochloa crus-galli); settings: foliage application, three weeks after application
Procedure, shortened: as §3

Italian ryegrass = assay: Test Example 4: herbicidal effect by soil treatment (Table 19, symbol K); assay type: in vivo, Italian ryegrass (Lolium multiflorum)
Procedure, shortened: as §2

Japanese bulrush [8] = assay: Test Example 1: herbicidal activity, application before weed generation under submerged conditions (Table 16, symbol B); assay type: in vivo, Japanese bulrush (Schoenoplectus juncoides)
Procedure, shortened: as §4

false cleavers [9] = assay: Test Example 4: herbicidal effect by soil treatment (Table 19, symbol Q); assay type: in vivo, false cleavers (Galium spurium)
Procedure, shortened: as §2

Japanese bulrush [10] = assay: Test Example 2: herbicidal activity, application during weed generation under submerged conditions (Table 17, symbol B); assay type: in vivo, Japanese bulrush (Schoenoplectus juncoides); settings: application during weed generation, submerged conditions
Procedure, shortened: as §1

blackgrass [11] = assay: Test Example 4: herbicidal effect by soil treatment (Table 19, symbol J); assay type: in vivo, blackgrass (Alopecurus myosuroides)
Procedure, shortened: as §2

barnyard grass [12] = assay: Test Example 4: herbicidal effect by soil treatment (Table 19, symbol H); assay type: in vivo, barnyard grass (Echinochloa crus-galli)
Procedure, shortened: as §2

[13] = amount of applied herbicide 310 g/ha
[14] = amount of applied herbicide 320 g/ha

CCCC(=O)Oc1c(C)nn(C)c(=O)c1-c1c(-c2ccccc2OC)sc2cc(OCC)ccc12 [3-090]
herbicidal effect rating, C: oval-leafed pondweed (oval-leafed pondweed; AAH 310 g/ha): 5 (Herbicidal rate of 90% or more (almost completely withered))
N: redroot pigweed, herbicidal effect grade (redroot pigweed [1]; [13]): 4 (Herbicidal rate of 70% or more and less than 90%)
G: green foxtail, herbicidal effect grade (green foxtail; 310 g/ha): 4 (Herbicidal rate of 70% or more and less than 90%)
N: redroot pigweed, herbicidal effect grade (redroot pigweed [2]; 310 g/ha): 5 (Herbicidal rate of 90% or more (almost completely withered))
I: wild oat, herbicidal effect grade (wild oat [3]; [13]): 0 (Herbicidal rate of 5% or less (almost no effect))
Herbicidal effect, A: late watergrass (late watergrass; [13]): 5 (Herbicidal rate of 90% or more (almost completely withered))
P: chickweed, herbicidal effect grade (chickweed; 310 g/ha): 5 (Herbicidal rate of 90% or more (almost completely withered))
I: wild oat, herbicidal effect grade (wild oat [4]; 310 g/ha): 4 (Herbicidal rate of 70% or more and less than 90%)
F: southern crabgrass, herbicidal effect grade (southern crabgrass; [13]): 3 (Herbicidal rate of 40% or more and less than 70%)
Q: false cleavers, herbicidal effect grade (false cleavers [5]; 310 g/ha): 5 (Herbicidal rate of 90% or more (almost completely withered))
J: blackgrass, herbicidal effect grade (blackgrass [6]; 310 g/ha): 4 (Herbicidal rate of 70% or more and less than 90%)
H: barnyard grass, herbicidal effect grade (barnyard grass [7]; 310 g/ha): 5 (Herbicidal rate of 90% or more (almost completely withered))
K: Italian ryegrass, herbicidal effect grade (Italian ryegrass; [13]): 4 (Herbicidal rate of 70% or more and less than 90%)
Herbicidal effect, B: Japanese bulrush (Japanese bulrush [8]; [13]): 5 (Herbicidal rate of 90% or more (almost completely withered))
Q: false cleavers, herbicidal effect grade (false cleavers [9]; [13]): 5 (Herbicidal rate of 90% or more (almost completely withered))
herbicidal effect rating, B: Japanese bulrush (Japanese bulrush [10]; AAH 310 g/ha): 4 (Herbicidal rate of 70% or more and less than 90%)
J: blackgrass, herbicidal effect grade (blackgrass [11]; [13]): 4 (Herbicidal rate of 70% or more and less than 90%)
H: barnyard grass, herbicidal effect grade (barnyard grass [12]; [13]): 2 (Herbicidal rate of 20% or more and less than 40%)

CCOc1ccc2c(-c3c(O)c(C)nn(C)c3=O)c(-c3ccc(OC)cc3)sc2c1 [3-091]
herbicidal effect rating, C: oval-leafed pondweed (oval-leafed pondweed; AAH 320 g/ha): 3 (Herbicidal rate of 40% or more and less than 70%)
N: redroot pigweed, herbicidal effect grade (redroot pigweed [1]; [14]): 3 (Herbicidal rate of 40% or more and less than 70%)
G: green foxtail, herbicidal effect grade (green foxtail; 320 g/ha): 0 (Herbicidal rate of 5% or less (almost no effect))
N: redroot pigweed, herbicidal effect grade (redroot pigweed [2]; 320 g/ha): 4 (Herbicidal rate of 70% or more and less than 90%)
I: wild oat, herbicidal effect grade (wild oat [3]; [14]): 0 (Herbicidal rate of 5% or less (almost no effect))
Herbicidal effect, A: late watergrass (late watergrass; [14]): 0 (Herbicidal rate of 5% or less (almost no effect))
P: chickweed, herbicidal effect grade (chickweed; 320 g/ha): 5 (Herbicidal rate of 90% or more (almost completely withered))
I: wild oat, herbicidal effect grade (wild oat [4]; 320 g/ha): 0 (Herbicidal rate of 5% or less (almost no effect))
F: southern crabgrass, herbicidal effect grade (southern crabgrass; [14]): 2 (Herbicidal rate of 20% or more and less than 40%)
Q: false cleavers, herbicidal effect grade (false cleavers [5]; 320 g/ha): 5 (Herbicidal rate of 90% or more (almost completely withered))
J: blackgrass, herbicidal effect grade (blackgrass [6]; 320 g/ha): 3 (Herbicidal rate of 40% or more and less than 70%)
H: barnyard grass, herbicidal effect grade (barnyard grass [7]; 320 g/ha): 3 (Herbicidal rate of 40% or more and less than 70%)
K: Italian ryegrass, herbicidal effect grade (Italian ryegrass; [14]): 0 (Herbicidal rate of 5% or less (almost no effect))
Herbicidal effect, B: Japanese bulrush (Japanese bulrush [8]; [14]): 4 (Herbicidal rate of 70% or more and less than 90%)
Q: false cleavers, herbicidal effect grade (false cleavers [9]; [14]): 5 (Herbicidal rate of 90% or more (almost completely withered))
herbicidal effect rating, B: Japanese bulrush (Japanese bulrush [10]; AAH 320 g/ha): 3 (Herbicidal rate of 40% or more and less than 70%)
J: blackgrass, herbicidal effect grade (blackgrass [11]; [14]): 0 (Herbicidal rate of 5% or less (almost no effect))
H: barnyard grass, herbicidal effect grade (barnyard grass [12]; [14]): 0 (Herbicidal rate of 5% or less (almost no effect))

CCCC(=O)Oc1c(C)nn(C)c(=O)c1-c1c(-c2ccc(OC)cc2)sc2cc(OCC)ccc12 [3-092]
herbicidal effect rating, C: oval-leafed pondweed (oval-leafed pondweed; AAH 320 g/ha): 3 (Herbicidal rate of 40% or more and less than 70%)
N: redroot pigweed, herbicidal effect grade (redroot pigweed [1]; [14]): 3 (Herbicidal rate of 40% or more and less than 70%)
G: green foxtail, herbicidal effect grade (green foxtail; 320 g/ha): 0 (Herbicidal rate of 5% or less (almost no effect))
N: redroot pigweed, herbicidal effect grade (redroot pigweed [2]; 320 g/ha): 5 (Herbicidal rate of 90% or more (almost completely withered))
I: wild oat, herbicidal effect grade (wild oat [3]; [14]): 0 (Herbicidal rate of 5% or less (almost no effect))
Herbicidal effect, A: late watergrass (late watergrass; [14]): 0 (Herbicidal rate of 5% or less (almost no effect))
P: chickweed, herbicidal effect grade (chickweed; 320 g/ha): 5 (Herbicidal rate of 90% or more (almost completely withered))
I: wild oat, herbicidal effect grade (wild oat [4]; 320 g/ha): 0 (Herbicidal rate of 5% or less (almost no effect))
F: southern crabgrass, herbicidal effect grade (southern crabgrass; [14]): 3 (Herbicidal rate of 40% or more and less than 70%)
Q: false cleavers, herbicidal effect grade (false cleavers [5]; 320 g/ha): 4 (Herbicidal rate of 70% or more and less than 90%)
J: blackgrass, herbicidal effect grade (blackgrass [6]; 320 g/ha): 0 (Herbicidal rate of 5% or less (almost no effect))
H: barnyard grass, herbicidal effect grade (barnyard grass [7]; 320 g/ha): 0 (Herbicidal rate of 5% or less (almost no effect))
K: Italian ryegrass, herbicidal effect grade (Italian ryegrass; [14]): 0 (Herbicidal rate of 5% or less (almost no effect))
Herbicidal effect, B: Japanese bulrush (Japanese bulrush [8]; [14]): 3 (Herbicidal rate of 40% or more and less than 70%)
Q: false cleavers, herbicidal effect grade (false cleavers [9]; [14]): 4 (Herbicidal rate of 70% or more and less than 90%)
herbicidal effect rating, B: Japanese bulrush (Japanese bulrush [10]; AAH 320 g/ha): 1 (Herbicidal rate of 5% or more and less than 20%)
J: blackgrass, herbicidal effect grade (blackgrass [11]; [14]): 0 (Herbicidal rate of 5% or less (almost no effect))
H: barnyard grass, herbicidal effect grade (barnyard grass [12]; [14]): 0 (Herbicidal rate of 5% or less (almost no effect))

CCOc1ccc2c(-c3c(O)c(C)nn(C)c3=O)c(-c3ccc(F)cc3OCC)sc2c1 [3-095]
herbicidal effect rating, C: oval-leafed pondweed (oval-leafed pondweed; AAH 320 g/ha): 5 (Herbicidal rate of 90% or more (almost completely withered))
N: redroot pigweed, herbicidal effect grade (redroot pigweed [1]; [14]): 5 (Herbicidal rate of 90% or more (almost completely withered))
G: green foxtail, herbicidal effect grade (green foxtail; 320 g/ha): 3 (Herbicidal rate of 40% or more and less than 70%)
N: redroot pigweed, herbicidal effect grade (redroot pigweed [2]; 320 g/ha): 5 (Herbicidal rate of 90% or more (almost completely withered))
I: wild oat, herbicidal effect grade (wild oat [3]; [14]): 3 (Herbicidal rate of 40% or more and less than 70%)
Herbicidal effect, A: late watergrass (late watergrass; [14]): 5 (Herbicidal rate of 90% or more (almost completely withered))
P: chickweed, herbicidal effect grade (chickweed; 320 g/ha): 5 (Herbicidal rate of 90% or more (almost completely withered))
I: wild oat, herbicidal effect grade (wild oat [4]; 320 g/ha): 5 (Herbicidal rate of 90% or more (almost completely withered))
F: southern crabgrass, herbicidal effect grade (southern crabgrass; [14]): 4 (Herbicidal rate of 70% or more and less than 90%)
Q: false cleavers, herbicidal effect grade (false cleavers [5]; 320 g/ha): 5 (Herbicidal rate of 90% or more (almost completely withered))
J: blackgrass, herbicidal effect grade (blackgrass [6]; 320 g/ha): 4 (Herbicidal rate of 70% or more and less than 90%)
H: barnyard grass, herbicidal effect grade (barnyard grass [7]; 320 g/ha): 5 (Herbicidal rate of 90% or more (almost completely withered))
K: Italian ryegrass, herbicidal effect grade (Italian ryegrass; [14]): 2 (Herbicidal rate of 20% or more and less than 40%)
Herbicidal effect, B: Japanese bulrush (Japanese bulrush [8]; [14]): 5 (Herbicidal rate of 90% or more (almost completely withered))
Q: false cleavers, herbicidal effect grade (false cleavers [9]; [14]): 4 (Herbicidal rate of 70% or more and less than 90%)
herbicidal effect rating, B: Japanese bulrush (Japanese bulrush [10]; AAH 320 g/ha): 5 (Herbicidal rate of 90% or more (almost completely withered))
J: blackgrass, herbicidal effect grade (blackgrass [11]; [14]): 4 (Herbicidal rate of 70% or more and less than 90%)
H: barnyard grass, herbicidal effect grade (barnyard grass [12]; [14]): 5 (Herbicidal rate of 90% or more (almost completely withered))
